In brackets after ≈: the same amount, converted by molar mass. Structures can show the parent of a compound that is named as a salt.
Experiments:
[1] = Solubility in PBS solution (pH 7.4) at room temperature; assay type: physicochemical; conditions: for solubility at 24 h: PBS solution (pH 7.4), aqueous buffer, kinetic from dmso stock, PBS pH 7.4, room temperature, 24 hours shaking, 1% DMSO, average of two measurements, read-out: Solubility in PBS pH7.4; for Solubility in the PBS solution (pH 7.4), in words: room temperature, PBS pH 7.4
Experimental: Test Example 1. Solubility of the Compound of the Present Disclosure in PBS Solution (pH 7.4) at Room Temperature
2.1 Formulation of the PBS solution (pH 7.4): 0.57 g of NaH2PO42.H2O, 5.55 g of Na2HPO4.12H2O and 6.48 g of NaCl were weighed, followed by the addition of ultra-pure water. The pH was adjusted to 7.4±0.05 with 1 M NaOH or 1 M HCl. Water was added until the volume reached 1 L. The PBS solution was stored in a refrigerator at 4° C. (the storage life was 6 months).
2.2 Formulation of the solution of the compound in PBS 7.4: An appropriate amount of the test compound was weighed, and dissolved in DMSO or a mixed solution of DMSO:acetonitrile:ethanol (1:1:1) to obtain a 10 mM stock solution of the test compound. 10 μL of the stock solution of the test compound and 990 μL of the PBS solution (pH 7.4) were precisely measured and placed in a 2 mL sample vial and mixed well, and the DMSO concentration of the final solution was 1% (v/v). This solution was formulated in duplicate, shaken on a plate bed at room temperature for 24 hours, and centrifuged at 5000 rpm for 20 minutes. The supernatant was analyzed by the liquid chromatograph.
2.3 Formulation of the reference solution: 10 μL of the stock solution of the test sample (concentration: 10 mM, dissolved in DMSO) and 990 μL of an organic mixed solvent (usually DMSO:acetonitrile:ethanol=1:1:1) were precisely measured and placed in a 2 mL sample vial, and mixed well to obtain a clear 100 μM sample solution. The solution was filtered through a 0.45 μm organic phase microporous filter membrane, and the filtrate was analyzed by the liquid chromatograph.
Solubility (μM)=peak area of the sample/peak area of the reference*concentration of the reference (μM)*sample solution dilution factor
The average of two measurements was used as the final solubility.

NaV1.8 ion channel = molecular target: T1, NaV1.8 ion channel (Homo sapiens, UniProt Q9Y5Y9); test: Manual patch clamp, inhibitory activity on NaV1.8 stably expressed on HEK293 cells; assay type: cell-based; conditions: HEK293 cells stably expressing NaV1.8, manual patch clamp, resting protocol (clamped at -80 mV, depolarized to 10 mV), 1 μM TTX; read-out: IC50 on inhibiting the Nav1.8 channel activity
T1 construct: expressed in transfected cells
Description: Test Example 3. Determination of the Inhibitory Activity of the Compounds of the Present Disclosure on NaV1.8
The purpose of the experiment is to investigate the effect of the compounds on NaV1.8 ion channel in an in vitro experiment, wherein the NaV1.8 ion channel is stably expressed on HEK293 cells. After the NaV1.8 current becomes stable, the NaV1.8 currents before and after the administration of the compound are compared so as to obtain the effect of the compound on the NaV1.8 ion channel.
Except for NaOH and KOH used for acid titration and base titration, all the compounds used for formulating the extracellular fluid and intracellular fluid were purchased from Sigma (St. Louis, Mo.). Extracellular fluid (mM): NaCl, 137; KCl, 4; CaCl2, 1.8; MgCl2, 1; HEPES, 10; glucose, 10; pH 7.4 (NaOH titration). Intracellular fluid (mM): aspartic acid, 140; MgCl2, 2; EGTA, 11; HEPES, 10; pH 7.2 (CsOH titration). All solutions of test compound and control compound contained 1 μM TTX.
The test compound was dissolved in dimethyl sulfoxide (DMSO) at a stock concentration of 9 mM. The stock solution of the test compound was dissolved in the extracellular fluid on the day of the test and formulated into the required concentration.
1) The compound was formulated into solutions with specified concentrations, the solutions were added to the pipelines respectively in order from low to high concentration, and the pipelines were marked.
2) The cell was transferred to the perfusion tank. A positive pressure was applied to the electrode. The tip of the electrode touched the cell. The three-way valve of the air extracting device was adjusted to a three-way state. […]
The cell was clamped at −80 mV. […] The maximum current caused by the square wave was measured. […] After the response became stable, the blocking intensity was calculated. […]
The inhibitory activity of the compounds of the present disclosure on NaV1.8 was determined by the above test, and the resulting IC50 values are shown in Table 3.

[2] = Pharmacokinetics assay in SD rats after intragastric administration, plasma LC/MS/MS; assay type: in vivo; conditions: for Detection of the administered prodrug compound itself in rat plasma: after intragastric administration, LC/MS/MS; for In vivo conversion of the prodrug into its metabolite: intragastric administration
Experimental: Test Example 2. Pharmacokinetics Assay of the Compounds of the Present Disclosure in Rats
SD rats were used as test animals. The drug concentration in plasma at different time points was determined by LC/MS/MS method after oral administration of the compounds of Example 2, Example 6 and Example 7 to SD rats. The pharmacokinetic behavior of the compounds of the present disclosure was studied and evaluated in SD rats.
Forty SD rats (half male and half female, equally divided into ten groups) were purchased from Shanghai Jiesijie Laboratory Animal Co., LTD. (Certificate No.: SCXK(Shanghai) 2013-0006).
An appropriate amount of the compound of Example 2 was weighed, followed by the addition of 5% of DMSO, 5% of tween 80 and 90% of normal saline successively to obtain a colorless, clear and transparent solution.
An appropriate amount of the compound of Example 2 was weighed, followed by the addition of 0.5% sodium carboxymethyl cellulose (containing 0.5% tween 80) to obtain a white homogeneous suspension.
An appropriate amount of the compound of Example 6 was weighed, and added to 200 mM (5% PVPK30+5% TPGS) Na2HPO4 solution (pH=9) to obtain a homogeneous suspension.
An appropriate amount of the compound of Example 7 was weighed, and added to 200 mM (5% PVPK30+5% TPGS) Na2HPO4 solution (pH=9) to obtain a homogeneous suspension.
After an overnight fast, the SD rats were intragastrically administered the test compounds. Regarding to the compound of Example 2 (formulation: 5% of DMSO, 5% of tween 80 and 90% of normal saline), the administration dose was 2 mg/kg, the administration volume was 10 mL/kg, and the administration concentration was 0.2 mg/mL. Regarding to the compound of Example 2 (formulation: 0.5% sodium carboxymethyl cellulose (containing 0.5% tween 80)), the administration dose was 10, 30, 100 mg/kg, the administration volume was 10 mL/kg, and the administration concentration was 1, 3, 10 mg/mL. Regarding to the compound of Example 6, the administration dose was 100, 300, 900 mg/kg, the administration volume was 10 mL/kg, and the administration concentration was 10, 30, 90 mg/mL. Regarding to the compound of Example 7, the administration dose was 10, 30, 100 mg/kg, the administration volume was 10 mL/kg, and the administration concentration was 1, 3, 10 mg/mL.
After an overnight fast, the SD rats were intragastrically administered the test compounds. 0.2 ml of blood was taken from the orbit before the administration and at 0.5, 1.0, 2.0, 4.0, 6.0, 8.0, 11.0 and 24.0 hours after the administration. The samples were stored in heparinized tubes, and centrifuged for 10 minutes at 3500 rpm to separate the blood plasma. The plasma samples were stored at −20° C. The SD rats were fed 2 hours after the administration.
The content of the test compound in the plasma of SD rats after administration of the test compound at different concentrations was determined: 25 μL of SD rat plasma at each time point after the administration was taken, followed by the addition of 50 μL of the internal standard camptothecin solution (100 ng/mL) and 200 μL of acetonitrile. The resulting solution was vortex-mixed for 5 minutes, and centrifuged for 10 minutes (3700 rpm). 3.0 μL of the supernatant was taken from the plasma samples of the compound of Example 2 (the group at the administration dose of 2 mg/kg) for LC/MS/MS analysis. 2.0 μL of the supernatant was taken from the plasma samples of the compound of Example 2 (the group at the administration dose of 10, 30, or 100 mg/kg) for LC/MS/MS analysis. 0.2 μL of the supernatant was taken from the plasma samples of the compound of Example 6 for LC/MS/MS analysis. 1 μL of the supernatant was taken from the plasma samples of the compound of Example 7 for LC/MS/MS analysis. […]

T1 sequence (Q9Y5Y9 whole entry): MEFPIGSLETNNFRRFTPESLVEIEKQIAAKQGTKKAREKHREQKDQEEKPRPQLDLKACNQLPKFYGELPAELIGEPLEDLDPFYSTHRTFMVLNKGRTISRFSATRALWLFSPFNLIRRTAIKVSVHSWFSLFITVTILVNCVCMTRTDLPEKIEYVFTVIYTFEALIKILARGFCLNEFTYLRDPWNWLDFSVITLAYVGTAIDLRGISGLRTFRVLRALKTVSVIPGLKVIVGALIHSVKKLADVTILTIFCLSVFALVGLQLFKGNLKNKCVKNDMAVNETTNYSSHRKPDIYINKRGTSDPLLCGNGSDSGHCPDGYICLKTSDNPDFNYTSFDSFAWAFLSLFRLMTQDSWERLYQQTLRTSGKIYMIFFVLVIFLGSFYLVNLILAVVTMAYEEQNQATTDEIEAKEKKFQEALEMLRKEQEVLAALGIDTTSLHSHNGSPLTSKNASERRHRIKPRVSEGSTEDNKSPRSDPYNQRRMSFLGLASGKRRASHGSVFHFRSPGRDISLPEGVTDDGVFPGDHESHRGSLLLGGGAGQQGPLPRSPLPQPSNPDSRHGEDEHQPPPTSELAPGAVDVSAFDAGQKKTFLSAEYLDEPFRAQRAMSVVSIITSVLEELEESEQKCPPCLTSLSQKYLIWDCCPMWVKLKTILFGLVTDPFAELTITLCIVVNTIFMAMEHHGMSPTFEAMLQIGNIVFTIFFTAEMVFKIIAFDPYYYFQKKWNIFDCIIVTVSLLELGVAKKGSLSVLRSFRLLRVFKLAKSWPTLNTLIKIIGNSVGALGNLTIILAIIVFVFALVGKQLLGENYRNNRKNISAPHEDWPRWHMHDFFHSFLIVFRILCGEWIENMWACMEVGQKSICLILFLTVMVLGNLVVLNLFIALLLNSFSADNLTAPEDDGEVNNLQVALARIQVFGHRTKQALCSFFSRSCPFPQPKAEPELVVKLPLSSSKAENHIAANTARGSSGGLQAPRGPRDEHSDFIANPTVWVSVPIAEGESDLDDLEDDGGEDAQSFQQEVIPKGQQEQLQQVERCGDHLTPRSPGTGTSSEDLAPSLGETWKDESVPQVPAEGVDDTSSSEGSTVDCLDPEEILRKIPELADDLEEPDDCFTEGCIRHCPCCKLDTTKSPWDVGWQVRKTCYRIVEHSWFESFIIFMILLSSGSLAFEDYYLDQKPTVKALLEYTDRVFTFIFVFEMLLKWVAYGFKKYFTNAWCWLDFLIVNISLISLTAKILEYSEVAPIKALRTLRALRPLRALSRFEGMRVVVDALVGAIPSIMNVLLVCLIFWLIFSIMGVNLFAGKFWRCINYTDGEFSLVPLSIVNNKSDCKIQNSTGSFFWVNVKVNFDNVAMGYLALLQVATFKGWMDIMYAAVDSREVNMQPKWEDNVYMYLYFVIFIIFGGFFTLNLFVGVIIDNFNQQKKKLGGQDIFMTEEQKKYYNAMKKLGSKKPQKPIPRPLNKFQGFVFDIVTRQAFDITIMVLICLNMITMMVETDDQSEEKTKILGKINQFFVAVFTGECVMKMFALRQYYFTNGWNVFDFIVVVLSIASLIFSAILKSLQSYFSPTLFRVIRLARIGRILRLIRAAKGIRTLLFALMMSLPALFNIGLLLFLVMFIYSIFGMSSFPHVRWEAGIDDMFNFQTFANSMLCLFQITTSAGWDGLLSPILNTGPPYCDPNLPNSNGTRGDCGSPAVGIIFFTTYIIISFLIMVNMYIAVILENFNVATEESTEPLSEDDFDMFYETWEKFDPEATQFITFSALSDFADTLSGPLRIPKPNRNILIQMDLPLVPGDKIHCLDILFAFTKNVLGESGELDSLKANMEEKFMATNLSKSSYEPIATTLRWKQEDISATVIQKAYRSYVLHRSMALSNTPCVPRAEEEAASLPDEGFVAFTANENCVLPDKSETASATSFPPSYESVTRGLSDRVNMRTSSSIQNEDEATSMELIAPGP

With Cc1cc(F)ccc1Oc1cc(C(F)(F)F)c(Cl)cc1C(=O)Nc1cn[nH]c(=O)c1 [Compound 1h, 5-Chloro-2-(4-fluoro-2-methylphenoxy)-N-(6-oxo-1,6-dihydropyridazin-4-yl)-4-(trifluoromethyl)benzamide] the solubility at 24 h [1] was 0.5 µM (≈ 0.221 µg/mL) and the “Solubility in the PBS solution (pH 7.4), in words” value (“Solubility in the PBS solution” for short) [1] was “poor”.
In the case of COc1cc(F)ccc1Oc1cc(C(F)(F)F)c(Cl)cc1C(=O)Nc1cn[nH]c(=O)c1 [Compound 6c, 5-Chloro-2-(4-fluoro-2-methoxyphenoxy)-N-(6-oxo-1,6-dihydropyridazin-4-yl)-4-(trifluoromethyl)benzamide], the solubility at 24 h [1] is reported as 0.44 µM (≈ 0.201 µg/mL) and the “Solubility in the PBS solution” value [1] is reported as “poor”.
With [2H]C([2H])([2H])Oc1cc(F)ccc1Oc1cc(C(F)(F)F)c(Cl)cc1C(=O)Nc1cn[nH]c(=O)c1 [Compound 7d, 5-Chloro-2-(4-fluoro-2-(methoxy-d3)phenoxy)-N-(6-oxo-1,6-dihydropyridazin-4-yl)-4-(trifluoromethyl)benzamide] the solubility at 24 h [1] was 1.26 µM (≈ 0.581 µg/mL) and the “Solubility in the PBS solution” value [1] was “poor”.
With Cc1cc(F)ccc1Oc1cc(C(F)(F)F)c(Cl)cc1C(=O)Nc1cnn(COC(=O)CCC(=O)O)c(=O)c1 [Example 2, 4-((4-(5-Chloro-2-(4-fluoro-2-methylphenoxy)-4-(trifluoromethyl)benzamido)-6-oxopyridazin-1(6H)-yl)methoxy)-4-oxobutanoic acid] the IC50 (NaV1.8 ion channel) was 0.0376 µM, the “Detection of the administered prodrug compound itself in rat plasma” value [2] was “not detected” and the “In vivo conversion of the prodrug into its metabolite” value [2] was “converted into compound 1h in vivo”. The solubility at 24 h [1] was 57.4 µM (≈ 32.8 µg/mL).
With COc1cc(F)ccc1Oc1cc(C(F)(F)F)c(Cl)cc1C(=O)Nc1cnn(COC(=O)CCC(=O)O)c(=O)c1 [Example 6, 4-((4-(5-Chloro-2-(4-fluoro-2-methoxyphenoxy)-4-(trifluoromethyl)benzamido)-6-oxopyridazin-1(6H)-yl)methoxy)-4-oxobutanoic acid] the IC50 (NaV1.8 ion channel) was 0.0039 µM, the “Detection of the administered prodrug compound itself in rat plasma” value [2] was “not detected” and the “In vivo conversion of the prodrug into its metabolite” value [2] was “converted into compound 6c in vivo”. The solubility at 24 h [1] was 44.9 µM (≈ 26.4 µg/mL).
For Cc1cc(F)ccc1Oc1cc(C(F)(F)F)c(Cl)cc1C(=O)Nc1cnn(COS(=O)(=O)O)c(=O)c1 [Example 8, (4-(5-Chloro-2-(4-fluoro-2-methylphenoxy)-4-(trifluoromethyl)benzamido)-6-oxopyridazin-1(6H)-yl)methyl hydrogen sulfate], the solubility at 24 h [1] was 707 µM.
Work on Cc1cc(F)ccc1Oc1cc(C(F)(F)F)c(Cl)cc1C(=O)Nc1cnn(COC(=O)/C=C/C(=O)O)c(=O)c1 [Example 9, (E)-4-((4-(5-Chloro-2-(4-fluoro-2-methylphenoxy)-4-(trifluoromethyl)benzamido)-6-oxopyridazin-1(6H)-yl)methoxy)-4-oxobut-2-enoic acid] yielded a solubility at 24 h [1] of 63.5 µM (≈ 36.2 µg/mL).
Work on Cc1cc(F)ccc1Oc1cc(C(F)(F)F)c(Cl)cc1C(=O)Nc1cnn(COC(=O)CC(=O)O)c(=O)c1 [Example 10, 3-((4-(5-Chloro-2-(4-fluoro-2-methylphenoxy)-4-(trifluoromethyl)benzamido)-6-oxopyridazin-1(6H)-yl)methoxy)-3-oxopropanoic acid] yielded a solubility at 24 h [1] of 147 µM (≈ 82 µg/mL).
For [2H]C([2H])([2H])Oc1cc(F)ccc1Oc1cc(C(F)(F)F)c(Cl)cc1C(=O)Nc1cnn(COS(=O)(=O)O)c(=O)c1 [Example 12, (4-(5-Chloro-2-(4-fluoro-2-(methoxy-d3)phenoxy)-4-(trifluoromethyl)benzamido)-6-oxopyridazin-1(6H)-yl)methyl hydrogen sulfate], the solubility at 24 h [1] was 96.2 µM.
[2H]C([2H])([2H])Oc1cc(F)ccc1Oc1cc(C(F)(F)F)c(Cl)cc1C(=O)Nc1cnn(COC(=O)/C=C/C(=O)O)c(=O)c1 [Example 13, (E)-4-((4-(5-Chloro-2-(4-fluoro-2-(methoxy-d3)phenoxy)-4-(trifluoromethyl)benzamido)-6-oxopyridazin-1(6H)-yl)methoxy)-4-oxobut-2-enoic acid] showed a solubility at 24 h [1] of 63.6 µM (≈ 37.4 µg/mL).

Source: US20220162169A1, “6-OXO-1,6-DIHYDROPYRIDAZINE PRODRUG DERIVATIVE, PREPARATION METHOD THEREFOR, AND APPLICATION THEREOF IN MEDICINE” (JIANGSU HENGRUI MEDICINE CO., LTD., priority 2019, published 2022)
